# From ChEMBL document CHEMBL1201862, “PubChem BioAssay data set” (2004)
# The source made the active and inactive calls.
# Columns and labels:
# Bcl-2-related protein A1 [1] = molecular target: T1, Bcl-2-related protein A1 (Mus musculus, UniProt Q07440); assay: Bfl-1 binding inhibitors, SAR follow-up, biochemical, fluorescence polarization (AID 1070)
# T1 sequence (Q07440 whole entry): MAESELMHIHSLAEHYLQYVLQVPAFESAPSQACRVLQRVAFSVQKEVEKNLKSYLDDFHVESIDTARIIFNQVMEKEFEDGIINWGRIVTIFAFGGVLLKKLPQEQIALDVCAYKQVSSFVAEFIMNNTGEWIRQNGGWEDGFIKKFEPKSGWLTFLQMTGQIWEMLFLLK
# Bcl-2-related protein A1 [2] = molecular target: T1, Bcl-2-related protein A1; assay: small-molecule antagonists of Bfl-1/BH3 interaction – biochemical, TR-FRET, mouse Bfl-1, confirmation (AID 621);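 further: TR-FRET binding of GST-Bfl-1 to FITC-labelled Bid peptide via terbium antibody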
# Oxytocin receptor = Oxytocin receptor (Homo sapiens, UniProt P30559); assay: Fluorescence-based cell-based high throughput dose response assay for potentiators of Oxytocin Receptor (OXTR). [Related pubchem assays: 434985 (Confirmation screen (OXTR potentiators in triplicate)), 2481 (Summary (OXTR potentiators)), 2445 (Primary screen (OXTR potentiators in singlicate))]; format: functional
# Leucine aminopeptidase = molecular target: T2, Leucine aminopeptidase (Plasmodium falciparum 3D7, UniProt Q8IL11); assay: P. falciparum M17LAP inhibitors, primary screen, biochemical, fluorogenic H-Leu-NHMec substrate, 1536-well (AID 1619); format: functional
# T2 sequence (Q8IL11 whole entry): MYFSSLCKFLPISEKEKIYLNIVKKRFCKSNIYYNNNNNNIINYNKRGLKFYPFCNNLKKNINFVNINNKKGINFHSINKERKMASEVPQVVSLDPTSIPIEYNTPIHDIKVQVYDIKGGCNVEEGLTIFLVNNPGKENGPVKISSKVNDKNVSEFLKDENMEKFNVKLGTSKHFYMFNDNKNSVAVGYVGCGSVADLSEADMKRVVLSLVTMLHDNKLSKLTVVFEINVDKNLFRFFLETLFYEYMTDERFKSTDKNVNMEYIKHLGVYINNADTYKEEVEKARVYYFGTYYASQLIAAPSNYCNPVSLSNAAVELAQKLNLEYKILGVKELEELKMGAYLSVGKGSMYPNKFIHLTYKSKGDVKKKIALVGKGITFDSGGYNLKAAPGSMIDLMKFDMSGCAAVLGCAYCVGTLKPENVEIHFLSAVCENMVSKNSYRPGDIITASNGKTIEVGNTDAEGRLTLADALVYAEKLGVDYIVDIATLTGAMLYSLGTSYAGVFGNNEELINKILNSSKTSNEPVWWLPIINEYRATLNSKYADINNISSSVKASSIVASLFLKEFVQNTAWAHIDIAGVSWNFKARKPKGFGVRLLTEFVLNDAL
# Procathepsin L = Procathepsin L (Homo sapiens, UniProt P07711); assay: CTSL1 protease inhibition – biochemical, QFRET, 1536-well, counter-screen for M1/M17 aminopeptidase inhibitor project, dose response (AID 2214)
# Aspartyl aminopeptidase = Aspartyl aminopeptidase (Plasmodium falciparum 3D7, UniProt Q8I2J3); assay: Counterscreen for inhibitors of M1 and M17 aminopeptidases: QFRET-based biochemical high throughput dose response assay for inhibitors of the Plasmodium falciparum M18 Aspartyl Aminopeptidase (PFM18AAP). [Related PubChem assays: 1619 (Screening assay (M17LAP inhibitors).), 1445 (Screening assay (M1AAP inhibitors).)]
# [3] = viability of HCT116 lacking mutant beta-catenin – cell-based, human colon tumor, dose response (AID 1045); format: functional;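 further: HCT116 colon tumor cells with beta catenin knocked out; cells exposed to compound for 60 hours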
# [4] = cytotoxicity toward Colo320 cells – cell-based, CellTiter-Glo luminescence, IC50, dose response (AID 1117334); format: functional; conditions: COLO 320
# [5] = CellTiter-Glo luminescence survival assay, SW480 colon tumor line, concentration-response curve, half-maximal inhibitory concentration (AID 1117338); format: functional
# [6] = viability of PTEN-deleted HCT116 cells – cell-based, HCT116 PTEN knockout, dose response (AID 1047); format: functional;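 further: HCT116 colon tumor cells with PTEN knocked out; cells exposed to compound for 60 hours before readout; potency for loss of cell viability measured by luminescence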
# [7] = Reduced DLD-1 viability, concentration-response, CellTiter-Glo luminescence (AID 1117352); format: functional
# [8] = RKO cell viability reduction, dose response, CellTiter-Glo luminescence (AID 1117322); format: functional
# [9] = SNU-C1 cell viability reduction, dose response, CellTiter-Glo luminescence (AID 1117323); format: functional, cell-based
# [10] = cytotoxicity toward HT-29 cells – cell-based, CellTiter-Glo luminescence, IC50, dose response (AID 1117330); format: functional
# [11] = cytotoxicity toward HCT116 cells – cell-based, CellTiter-Glo luminescence, IC50, dose response (AID 1117332); format: functional; conditions: HCT-116
# [12] = molecular target: Heat shock protein HSP 90-alpha (Homo sapiens, UniProt P07900); format: functional, organism-based
# [13] = Potency on glucagon-like peptide 1 release, dose-response in NCI-H716 cell line, half maximal inhibitory concentration (AID 1117344); format: functional, cell-based
# [14] = glucagon-like peptide-1 release potency in STC-1, concentration-response, half-maximal inhibitory concentration in the STC-1 line (AID 1117345); format: functional, cell-based
# [15] = molecular target: 5-hydroxytryptamine receptor 1E (Homo sapiens, UniProt P28566); assay: Counterscreen assay for S1P3 antagonists: Dose response cell-based high throughput screening assay to identify antagonists of the 5-Hydroxytryptamine Receptor Subtype 1E (5HT1E). [Related pubchem assays: 1429, 485 ]; format: functional
# [16] = molecular target: Sphingosine 1-phosphate receptor 3 (Homo sapiens, UniProt Q99500); assay: Dose response cell-based high throughput screening assay for antagonists of the Sphingosine 1-Phosphate Receptor 3 (S1P3). [Related pubchem assays: 1429, 485 ]; format: functional
# [17] = molecular target: Neuropeptide Y receptor type 2 (Homo sapiens, UniProt P49146); assay: IC50 for human NPY-Y2 blockade – cell-based, counter-screen for NPY-Y1 antagonist project, dose response (AID 1278); format: functional
# [18] = antiviral protection against BTV-induced cell death – arbovirus, BSR cells, confirmation (AID 1250); format: functional;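 further: protection from viral cytopathic effect measured as cell viability by ATP luminescence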
# 14-3-3 protein gamma = 14-3-3 protein gamma (Homo sapiens, UniProt P61981); assay: modulators of 14-3-3 gamma client binding – dose response (AID 711); format: functional
# Troponin, cardiac muscle = Troponin, cardiac muscle (Homo sapiens, UniProt P19429+P45379+P63316); assay: Fluorescence-based biochemical high throughput dose response assay for activators of the calcium sensitivity of cardiac Regulated Thin Filaments (RTF). [Related pubchem assays (depositor defined):AID493008, AID493018, AID504382, AID504383]; format: protein-complex assay
# [19] = molecular target: T3, Low molecular weight phosphotyrosine protein phosphatase (Homo sapiens, UniProt P24666); assay: inhibition of human LMPTP enzyme activity – biochemical, absorbance, pNPP substrate, LMPTP-A isoform, set 2, orthogonal assay, dose response (AID 743308); format: functional
# T3 sequence (P24666 whole entry): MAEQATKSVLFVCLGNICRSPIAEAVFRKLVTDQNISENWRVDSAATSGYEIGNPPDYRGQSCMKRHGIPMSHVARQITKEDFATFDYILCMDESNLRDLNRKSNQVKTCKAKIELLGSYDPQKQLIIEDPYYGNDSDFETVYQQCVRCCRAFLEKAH
# [20] = molecular target: T3, Low molecular weight phosphotyrosine protein phosphatase; assay: inhibition of LMPTP-A enzymatic activity – biochemical, OMFP substrate, fluorescence intensity, set 2, dose response (AID 743307); format: functional
# [21] = Late stage counterscreen results from the probe development effort to identify activators of signal transducer and activator of transcription 1 (STAT1): luminescence-based cell-based dose response assay to identify cytotoxic compounds.; format: functional
# [22] = molecular target: Tyrosyl-DNA phosphodiesterase 2 (Homo sapiens, UniProt O95551); assay: potency against TDP2 phosphodiesterase activity – biochemical, epi absorbance, IC50, dose response (AID 743297)
# [23] = molecular target: Voltage-gated inwardly rectifying potassium channel KCNH2 (Homo sapiens, UniProt Q12809); assay: concentration-dependent hERG rescue from blockers – cell-based, thallium flux, dose response (AID 2121); format: ADME
# Streptococcus = assay: GAS UMAA2166 growth inhibition – luminescence, BacTiterGlo, counter-screen for streptokinase expression inhibitor project, dose response (AID 1915); format: functional, organism-based;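 further: potency for reduction of bacterial viability or growth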
# [24] = test system: Streptococcus sp. 'group A'; assay: Streptococcus pyogenes SK(-)GAS viability under kanamycin – luminescence, BacTiterGlo, confirmation, counter-screen for streptokinase expression inhibitor project, dose response (AID 1900); format: functional, organism-based
# [25] = M. tuberculosis growth inhibition, HTS (AID 449762); format: functional
# [26] = mitochondrial function rescue without frataxin homolog – Friedreich's ataxia, plus single-dose screen, dose response (AID 1465); format: functional;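 further: yeast depleted of Yfh1p frataxin homolog grown on glycerol needing respiration; WST-1 tetrazolium dye reduction as measure of cellular dehydrogenase metabolic activity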
# Nonstructural protein 1 = Nonstructural protein 1 (Influenza A virus, UniProt Q194T2); format: functional, Influenza A virus (A/California/07/2009(H1N1))
# Galanin receptor type 2 = Galanin receptor type 2 (Homo sapiens, UniProt O43603); assay: Dose Response cell-based high-throughput screening assay to identify antagonists of galanin receptor 2 (GALR2). [Related pubchem assays: 828, 866 ]; format: functional
# [27] = molecular target: Peroxisome proliferator-activated receptor gamma/Nuclear receptor corepressor 2 (Homo sapiens, UniProt P37231+Q9Y618); assay: Counterscreen for NR2E3 inverse agonists: TR-FRET-based biochemical high throughput dose response assay to identify inverse agonists of the interaction between peroxisome proliferator-activated receptor gamma (PPARg) and nuclear receptor co-repressor 2 (NCOR2).; format: functional
# [28] = molecular target: Photoreceptor-specific nuclear receptor (Homo sapiens, UniProt Q9Y5X4); assay: ligands suppressing NR2E3 nuclear receptor activity – biochemical, TR-FRET, dose response (AID 463256); format: functional
# Chain of Photoreceptor-specific nuclear receptor (Q9Y5X4 whole entry): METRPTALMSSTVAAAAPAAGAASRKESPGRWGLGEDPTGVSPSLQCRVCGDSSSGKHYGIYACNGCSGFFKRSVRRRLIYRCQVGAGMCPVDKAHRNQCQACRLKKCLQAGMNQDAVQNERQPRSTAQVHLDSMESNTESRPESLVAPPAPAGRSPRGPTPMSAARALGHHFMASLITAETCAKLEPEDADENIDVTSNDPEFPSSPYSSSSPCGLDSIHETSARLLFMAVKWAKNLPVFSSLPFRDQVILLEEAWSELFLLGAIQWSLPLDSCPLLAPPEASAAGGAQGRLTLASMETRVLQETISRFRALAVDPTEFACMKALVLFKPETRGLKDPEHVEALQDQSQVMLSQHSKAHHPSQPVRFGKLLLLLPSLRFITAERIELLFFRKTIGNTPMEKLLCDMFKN
# Chain of Procathepsin L (P07711 whole entry): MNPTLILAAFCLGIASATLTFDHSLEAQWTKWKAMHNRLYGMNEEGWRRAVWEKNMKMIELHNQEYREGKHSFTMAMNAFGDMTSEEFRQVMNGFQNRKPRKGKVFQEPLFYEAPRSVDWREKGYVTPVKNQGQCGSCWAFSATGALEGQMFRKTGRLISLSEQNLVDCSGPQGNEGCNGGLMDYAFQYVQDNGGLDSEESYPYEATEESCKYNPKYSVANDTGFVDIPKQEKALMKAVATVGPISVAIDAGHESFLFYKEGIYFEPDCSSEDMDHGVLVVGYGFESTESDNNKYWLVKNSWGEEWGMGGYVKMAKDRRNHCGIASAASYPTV
# Chain of Galanin receptor type 2 (O43603 whole entry): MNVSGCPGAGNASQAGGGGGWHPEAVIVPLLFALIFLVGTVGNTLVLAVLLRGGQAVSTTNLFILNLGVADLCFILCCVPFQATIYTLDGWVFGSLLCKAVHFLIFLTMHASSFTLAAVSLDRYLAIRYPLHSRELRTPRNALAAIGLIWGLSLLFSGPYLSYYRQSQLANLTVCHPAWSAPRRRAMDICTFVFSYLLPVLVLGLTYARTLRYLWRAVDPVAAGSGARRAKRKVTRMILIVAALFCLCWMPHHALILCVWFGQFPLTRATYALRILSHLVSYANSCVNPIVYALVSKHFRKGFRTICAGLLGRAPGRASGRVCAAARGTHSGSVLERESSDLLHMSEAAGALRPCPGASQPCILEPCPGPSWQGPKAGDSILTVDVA
# Chain of Aspartyl aminopeptidase (Q8I2J3 whole entry): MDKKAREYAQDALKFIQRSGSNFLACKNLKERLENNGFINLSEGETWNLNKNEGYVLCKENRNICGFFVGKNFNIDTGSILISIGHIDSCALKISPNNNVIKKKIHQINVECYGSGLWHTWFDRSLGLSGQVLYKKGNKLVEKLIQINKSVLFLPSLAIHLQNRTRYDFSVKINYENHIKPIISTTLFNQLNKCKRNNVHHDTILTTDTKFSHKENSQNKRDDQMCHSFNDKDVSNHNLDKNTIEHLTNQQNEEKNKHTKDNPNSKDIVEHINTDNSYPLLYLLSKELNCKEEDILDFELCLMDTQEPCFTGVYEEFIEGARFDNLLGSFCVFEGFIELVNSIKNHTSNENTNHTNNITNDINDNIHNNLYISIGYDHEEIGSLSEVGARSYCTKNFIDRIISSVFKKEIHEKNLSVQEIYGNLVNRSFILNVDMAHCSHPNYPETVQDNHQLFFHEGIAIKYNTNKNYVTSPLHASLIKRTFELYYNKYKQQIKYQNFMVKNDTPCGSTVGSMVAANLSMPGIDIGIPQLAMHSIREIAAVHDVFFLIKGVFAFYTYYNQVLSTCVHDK
# Chain of Oxytocin receptor (P30559 whole entry): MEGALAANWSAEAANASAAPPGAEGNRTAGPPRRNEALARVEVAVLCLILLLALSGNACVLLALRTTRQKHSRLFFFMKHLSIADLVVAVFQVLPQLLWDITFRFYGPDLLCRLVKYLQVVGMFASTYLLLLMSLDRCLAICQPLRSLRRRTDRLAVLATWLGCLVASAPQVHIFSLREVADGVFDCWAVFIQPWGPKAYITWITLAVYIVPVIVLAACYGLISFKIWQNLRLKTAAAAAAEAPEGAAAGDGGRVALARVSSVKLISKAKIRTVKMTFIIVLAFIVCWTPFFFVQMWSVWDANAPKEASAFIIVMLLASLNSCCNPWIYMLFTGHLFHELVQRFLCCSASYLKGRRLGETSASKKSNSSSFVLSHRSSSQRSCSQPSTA
# Chain of Voltage-gated inwardly rectifying potassium channel KCNH2 (Q12809 whole entry): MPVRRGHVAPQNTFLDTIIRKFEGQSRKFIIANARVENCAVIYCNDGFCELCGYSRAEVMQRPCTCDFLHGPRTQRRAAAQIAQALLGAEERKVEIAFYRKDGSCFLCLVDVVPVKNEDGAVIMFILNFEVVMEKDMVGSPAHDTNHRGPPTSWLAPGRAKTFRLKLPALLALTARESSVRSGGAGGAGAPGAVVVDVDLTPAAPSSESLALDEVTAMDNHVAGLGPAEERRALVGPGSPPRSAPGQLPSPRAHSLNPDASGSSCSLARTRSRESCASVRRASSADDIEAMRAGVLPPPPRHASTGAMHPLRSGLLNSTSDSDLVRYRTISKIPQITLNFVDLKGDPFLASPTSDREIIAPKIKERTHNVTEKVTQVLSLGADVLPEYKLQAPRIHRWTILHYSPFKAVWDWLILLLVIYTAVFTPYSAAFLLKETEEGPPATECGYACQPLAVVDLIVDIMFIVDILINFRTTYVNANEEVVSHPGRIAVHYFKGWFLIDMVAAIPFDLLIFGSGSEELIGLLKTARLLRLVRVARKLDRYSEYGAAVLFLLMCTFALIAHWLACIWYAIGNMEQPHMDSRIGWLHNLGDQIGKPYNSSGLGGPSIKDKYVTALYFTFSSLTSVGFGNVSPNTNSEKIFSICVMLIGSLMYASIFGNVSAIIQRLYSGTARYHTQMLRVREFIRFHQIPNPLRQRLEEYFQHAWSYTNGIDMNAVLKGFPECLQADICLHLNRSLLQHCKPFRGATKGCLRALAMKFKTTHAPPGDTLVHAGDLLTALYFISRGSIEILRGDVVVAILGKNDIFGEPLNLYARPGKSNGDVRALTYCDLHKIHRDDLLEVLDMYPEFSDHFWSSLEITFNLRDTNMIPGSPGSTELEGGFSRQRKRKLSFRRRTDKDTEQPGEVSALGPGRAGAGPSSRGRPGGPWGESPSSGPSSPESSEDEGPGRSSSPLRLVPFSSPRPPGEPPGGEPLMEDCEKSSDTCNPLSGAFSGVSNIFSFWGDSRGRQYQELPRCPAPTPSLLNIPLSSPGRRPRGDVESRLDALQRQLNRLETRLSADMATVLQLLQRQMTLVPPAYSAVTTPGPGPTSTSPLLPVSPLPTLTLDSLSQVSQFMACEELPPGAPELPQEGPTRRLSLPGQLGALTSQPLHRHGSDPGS
# Chain of Neuropeptide Y receptor type 2 (P49146 whole entry): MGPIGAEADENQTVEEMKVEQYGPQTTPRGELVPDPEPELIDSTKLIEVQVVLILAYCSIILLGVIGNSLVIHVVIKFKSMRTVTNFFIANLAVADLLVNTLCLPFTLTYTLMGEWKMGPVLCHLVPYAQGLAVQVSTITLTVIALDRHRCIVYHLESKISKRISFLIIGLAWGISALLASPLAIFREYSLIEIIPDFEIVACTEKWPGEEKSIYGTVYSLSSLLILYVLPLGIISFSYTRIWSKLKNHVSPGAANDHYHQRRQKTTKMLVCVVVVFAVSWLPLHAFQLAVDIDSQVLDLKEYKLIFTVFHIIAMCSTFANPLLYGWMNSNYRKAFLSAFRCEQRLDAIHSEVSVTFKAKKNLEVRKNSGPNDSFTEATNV
# Chain of Tyrosyl-DNA phosphodiesterase 2 (O95551 whole entry): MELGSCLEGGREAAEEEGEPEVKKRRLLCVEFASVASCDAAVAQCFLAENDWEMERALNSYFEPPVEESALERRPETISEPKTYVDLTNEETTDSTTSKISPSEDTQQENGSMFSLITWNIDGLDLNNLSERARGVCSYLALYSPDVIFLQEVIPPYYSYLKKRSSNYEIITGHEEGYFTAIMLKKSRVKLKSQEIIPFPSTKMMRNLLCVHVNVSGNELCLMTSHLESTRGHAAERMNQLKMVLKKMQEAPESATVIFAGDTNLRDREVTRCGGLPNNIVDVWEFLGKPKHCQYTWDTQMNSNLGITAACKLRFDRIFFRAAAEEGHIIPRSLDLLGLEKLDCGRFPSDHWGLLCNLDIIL
# Chain of 14-3-3 protein gamma (P61981 whole entry): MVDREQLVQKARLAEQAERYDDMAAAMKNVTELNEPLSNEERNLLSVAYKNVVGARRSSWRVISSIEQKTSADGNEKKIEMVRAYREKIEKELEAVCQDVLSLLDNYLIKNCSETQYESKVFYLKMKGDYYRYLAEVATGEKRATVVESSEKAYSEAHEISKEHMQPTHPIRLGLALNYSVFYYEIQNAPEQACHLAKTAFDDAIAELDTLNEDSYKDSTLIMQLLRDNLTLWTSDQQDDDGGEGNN
# Chain of Nonstructural protein 1 (Q194T2 whole entry): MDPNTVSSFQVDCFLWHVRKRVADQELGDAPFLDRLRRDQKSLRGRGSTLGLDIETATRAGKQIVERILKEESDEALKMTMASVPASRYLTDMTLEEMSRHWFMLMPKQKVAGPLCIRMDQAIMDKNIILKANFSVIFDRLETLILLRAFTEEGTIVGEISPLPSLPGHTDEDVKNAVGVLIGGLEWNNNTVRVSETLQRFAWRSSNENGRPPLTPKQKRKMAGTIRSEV
# Chain of Sphingosine 1-phosphate receptor 3 (Q99500 whole entry): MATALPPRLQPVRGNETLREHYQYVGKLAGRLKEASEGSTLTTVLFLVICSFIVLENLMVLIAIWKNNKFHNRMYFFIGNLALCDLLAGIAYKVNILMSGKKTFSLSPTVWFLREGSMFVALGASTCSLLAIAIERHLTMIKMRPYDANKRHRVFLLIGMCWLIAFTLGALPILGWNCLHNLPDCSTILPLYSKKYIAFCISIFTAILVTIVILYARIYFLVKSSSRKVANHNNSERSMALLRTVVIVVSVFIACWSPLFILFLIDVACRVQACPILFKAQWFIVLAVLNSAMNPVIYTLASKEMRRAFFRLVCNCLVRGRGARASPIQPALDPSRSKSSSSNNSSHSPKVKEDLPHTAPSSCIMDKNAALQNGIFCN
smiles,measurement,setting,value
Clc1ccc(-n2nnc(-c3cccnc3Cl)n2)cn1,IC50,Bcl-2-related protein A1 [1],> 100 µM (not active)
same,IC50,Bcl-2-related protein A1 [2],> 100 µM (not active)
CCOc1ccc(-c2c(C(=O)N/N=C/c3ccc(Cl)cc3)nnn2-c2nonc2N)cc1,EC50,Oxytocin receptor,> 29.9 µM (not active)
N#Cc1c(NC(=O)C2CC=CCC2C(=O)O)sc2c1CCCCCC2 (centres undefined),IC50,Leucine aminopeptidase,< 1 µM (active)
same,IC50,Procathepsin L,> 59.6 µM (not active)
same,IC50,Aspartyl aminopeptidase,> 73.5 µM (not active)
Oc1ccc(Cl)cc1Cc1cc(Cl)ccc1O [DICHLOROPHEN],EC50,[3],16.4 µM (active)
same,IC50,[4],1.21 µM (active)
same,IC50,[5],2.5 µM (active)
same,EC50,[6],15.7 µM (active)
same,IC50,[7],0.862 µM (active)
same,IC50,[8],1.93 µM (active)
same,IC50,[9],0.546 µM (active)
same,IC50,[10],4.69 µM (active)
same,IC50,[11],1.55 µM (active)
same,AC50,[12],8 µM (active)
same,IC50,[13],15.6 µM (inactive)
same,IC50,[14],> 40 µM (inactive)
Cc1cc(C(=O)CSc2nc3ccccc3c(=O)n2C)c(C)n1CC1CCCO1 (centres undefined),IC50,[15],> 50 µM (not active)
same,IC50,[16],> 50 µM (not active)
same,IC50,[17],> 35 µM (not active)
CCOc1ccc(-n2c(SCC(=O)Nc3cc(OC)c([N+](=O)[O-])cc3C)nc3ccccc32)cc1,IC50,[18],43 µM (active)
COc1ncnc2c1N=C1CC(C)(C)CC(N)=C1S2,IC50,14-3-3 protein gamma,30 µM (active)
same,EC50,"Troponin, cardiac muscle",> 7.94 µM (active)
c1ccc(-c2cc(SCCCN3CCCCC3)c3ccccc3n2)cc1,IC50,[19],> 80 µM (inactive)
same,IC50,[20],66.9 µM (inactive)
Cc1nnc(SCC(=O)Nc2ccc(-c3nc4ccccc4s3)cc2)s1,IC50,[21],> 55.7 µM (not active)
CCOC(=O)C1=C(Cc2ccc(C)cc2)C(=O)c2ccccc2C1=O,IC50,[22],> 128 µM (inactive)
same,EC50,[23],4.1 µM (active)
same,EC50,Streptococcus,6.91 µM (active)
same,EC50,[24],6.54 µM (active)
Cn1nnc(NC(=S)NC(=O)c2ccc(-c3ccc(Br)cc3)o2)n1,IC50,[25],> 100 µM (active)
COc1cc([N+](=O)[O-])cc(/C=N/NC(=O)c2ccc(C)nc2)c1O,EC50,[26],> 100 µM (active)
same,IC50,Nonstructural protein 1,5.49 µM (active)
same,EC50,Streptococcus,2.22 µM (active)
same,EC50,[24],2.62 µM (active)
c1ccc2c3nc[nH]c(NCC4CCCO4)c-3nc2c1 (centres undefined),IC50,Galanin receptor type 2,> 42 µM (not active)
COc1ccc(NC(=O)CSc2nnc(-c3cccs3)n2-c2ccccc2)cc1,IC50,[27],2.16 µM (active)
same,IC50,[28],2.09 µM (active)
